Experimental data from US20050171032A1, “Methods for the treatment of cancer” (priority 2002, published 2005).

Experiments:
PC-3 cells = assay: EGFR and Akt1 phosphorylation by immunoblot, PC-3 cells; type: cell-based, human; settings: 2 μg/ml filipin 1 h, 5 ng/ml EGF 20 min, FIG. 4F
Experimental: Prior to challenge with EGF (2 or 20 ng/ml), some groups of cells were treated with filipin (2 μg/ml) (lanes 7-12) for 1 h. […] In this and subsequent panels, lysates were isolated following the various treatments and processed for immunoblot analysis. p-Akt refers to a phosphorylated form of Akt1 detected with a phospho-specific Ab (Ser-473). […] LNCaP-Cav-1 cells and PC-3 cells were mock-treated or treated with 2 μg/ml filipin for 1 h at 37° C. […] Prior to the collection of cell lysates and immunoblot analysis, cells were stimulated with 5 ng/ml EGF for 20 min at 37° C.
Human PCa cell lines LNCaP and PC-3 were purchased from the American Type Culture Collection (ATCC; Rockville, Md.). Both cell lines were cultured in RPMI 1640 supplemented with 10% heat-inactivated FBS.

[1] = test system: prostate glandular hyperplasia; settings: dogs; published evidence (30); cited from earlier work
Akt1 = Akt1 phosphorylation (Ser-473) by immunoblot, LNCaP cells; type: cell-based, human; settings: FIG. 4A
Experimental: LNCaP cells were used for all experiments shown. Prior to challenge with EGF (2 or 20 ng/ml), some groups of cells were treated with filipin (2 μg/ml) (lanes 7-12) for 1 h. Other cells (lanes 4-6, 10-12) were subsequently incubated with cyclodextrin/cholesterol complexes (Cholesterol) for 1 h to replete cholesterol (FIG. 4A). In this and subsequent panels, lysates were isolated following the various treatments and processed for immunoblot analysis. p-Akt refers to a phosphorylated form of Akt1 detected with a phospho-specific Ab ([…]). […] Cell lysates were isolated following the various treatments and processed for immunoblot analysis. p-Akt=phosphorylated form of Akt detected with a phospho-specific Ab ([…]). […] In these experiments the apoptosis of cells treated with simvastatin or mock-treated, with or without raft reconstitution, was quantified by cell death detection ELISA (Roche). Cells were either mock-treated or treated with various doses of simvastatin as indicated for 16 hours and the amount of apoptosis was quantified by ELISA and is graphically represented as absorbance at 405 nm-490 nm vs. dose of statin drug±SD from triplicate determinations (FIG. 6B). The cells were treated either in simvastatin (Sim; 10 μM) or simvastatin (Sim) and cyclodextrin/cholesterol complex (+cholesterol) for 4 hours and the amount of apoptosis was quantified by ELISA (FIG. 6C). […]

EGFR = EGFR phosphorylation by immunoblot of detergent fractions, LNCaP cells; type: cell-based, human
Experimental: Mock- or filipin (2 μg/ml)-pretreated cells were incubated in serum-free medium with or without cholesterol/cyclodextrin (Cholesterol) complexes for 1 h at 37° C. followed by EGF treatment for 20 min. […] All cells were subjected to SDEM and the I- and S-fractions analyzed by immunoblot. p-EGFR indicates EGFR phosphorylated on Y1173 detected with a phospho-specific Ab. Cell viability measured by Trypan blue exclusion 1 h after treatment of cells with filipin (FIG. 2B).
LNCaP cells were used for all experiments shown. Prior to challenge with EGF (2 or 20 ng/ml), some groups of cells were treated with filipin (2 μg/ml) (lanes 7-12) for 1 h. Other cells (lanes 4-6, 10-12) were subsequently incubated with cyclodextrin/cholesterol complexes (Cholesterol) for 1 h to replete cholesterol (FIG. 4A). In this and subsequent panels, lysates were isolated following the various treatments and processed for immunoblot analysis. p-Akt refers to a phosphorylated form of Akt1 detected with a phospho-specific Ab (Ser-473). Cells were serum-starved overnight, then pretreated with 5 mM cyclodextrin for the indicated times (lanes 1-6), or treated for 1 h with varying concentrations of cyclodextrin (lanes 7-10), then treated immediately afterward with vehicle or with 5 ng/ml EGF (FIG. 4B). […]

LNCaP cells [2] = assay: Apoptosis assays (TUNEL/flow cytometry, cell death detection ELISA, DNA ladder) in LNCaP cells; type: cell-based, human; settings: serum-free, 20 μM LY294002 20 h, 2 μg/ml filipin 1 h, FIG. 3
Experimental: Apoptosis was quantified by TUNEL in combination with flow cytometry (FIG. 3A). LNCaP cells were seeded 24 h before treatments in 6-well plates at a density of 2-4×10^5/well. Conditions shown are: 20 h in serum-free medium (SFM); 20 μM LY294002 (LY); 20 μM LY294002 with 10 ng/ml EGF treatment (LY+E); 2 μg/ml filipin for 1 h (F); filipin treatment as (F) with 10 ng/ml EGF for 20 h (F+E); treatment with 2 μg/ml filipin and cyclodextrin/cholesterol complexes (C) for 1 h, followed by incubation with serum-free medium containing 20 μM LY294002 and 10 ng/ml EGF for 20 h (F+C+LY+E). Quantitative measurement of DNA fragmentation was performed with a cell death detection ELISA kit (FIG. 3B). […]
A quantitative sandwich ELISA was performed to measure mono- and oligonucleosomes in the cytoplasmic fraction of cell lysates according to the manufacturer's manual (Cell death detection ELISA) (Roche, Indianapolis, Ind.). Briefly, 1.5-2.0×10^5 cells/well were seeded in 6-well plates for 24 h, cell lysates were collected after various treatments as indicated, and the amount of histone-associated DNA fragments was quantified by spectrophotometric measurement of peroxidase activity retained in the immunocomplex (415 nm) against the substrate solution as a blank (490 nm). Apoptosis was also evaluated by the TUNEL method, using the In Situ Cell Death Detection Kit (Roche, Indianapolis, Ind.).

LNCaP-Cav-1 cells = assay: EGFR and Akt1 phosphorylation by immunoblot, caveolin-1 transfected LNCaP cells; type: cell-based, human; settings: 2 μg/ml filipin 1 h, 5 ng/ml EGF 20 min, FIG. 4F
Experimental: LNCaP cells were used for all experiments shown. Prior to challenge with EGF (2 or 20 ng/ml), some groups of cells were treated with filipin (2 μg/ml) (lanes 7-12) for 1 h. Other cells (lanes 4-6, 10-12) were subsequently incubated with cyclodextrin/cholesterol complexes (Cholesterol) for 1 h to replete cholesterol (FIG. 4A). In this and subsequent panels, lysates were isolated following the various treatments and processed for immunoblot analysis. p-Akt refers to a phosphorylated form of Akt1 detected with a phospho-specific Ab (Ser-473). Cells were serum-starved overnight, then pretreated with 5 mM cyclodextrin for the indicated times (lanes 1-6), or treated for 1 h with varying concentrations of cyclodextrin (lanes 7-10), then treated immediately afterward with vehicle or with 5 ng/ml EGF (FIG. 4B). Cells were either mock-treated or treated with varying doses of filipin as indicated for 1 h followed by 5 ng/ml EGF treatment (FIG. 4C). Serum-containing medium was removed and cells were treated immediately with 2 μg/ml filipin alone under serum-free conditions for the times shown (FIG. 4D). No change in EGFR or Akt1 phosphorylation was observed when serum was removed and cells were not treated with filipin (not shown). […]

LNCaP cells [3] = assay: Cell viability by Trypan blue exclusion; type: cell-based, human; settings: 1 h after filipin treatment, at the doses used; FIG. 2
Experimental: Mock- or filipin (2 μg/ml)-pretreated cells were incubated in serum-free medium with or without cholesterol/cyclodextrin (Cholesterol) complexes for 1 h at 37° C. followed by EGF treatment for 20 min. (FIG. 2A). All cells were subjected to SDEM and the I- and S-fractions analyzed by immunoblot. p-EGFR indicates EGFR phosphorylated on Y1173 detected with a phospho-specific Ab. Cell viability measured by Trypan blue exclusion 1 h after treatment of cells with filipin (FIG. 2B).

[4] = test system: Human primary culture prostate epithelial cells; assay: Apoptosis by cell death detection ELISA in primary culture prostate epithelial cells; type: cell-based; settings: various concentrations simvastatin, 16 hours; FIG. 7
Experimental: Human primary culture prostate epithelial cells were treated with various concentrations simvastatin or were mock treated as indicated at 37 °C for 16 hours. Subsequently the cells were lysed and apoptosis was quantified by cell death detection ELISA (Roche).

| SMILES | ligand-induced Akt1 phosphorylation (PC-3 cells) | ligand-induced EGFR phosphorylation (PC-3 cells) | reduction of prostate glandular hyperplasia [1] | toxicity [1] | EGF-induced Akt1 phosphorylation (Akt1; 2 μg/ml filipin 1 h, 20 ng/ml EGF) | constitutive and EGF-induced Akt1 phosphorylation (Akt1; varying filipin doses and times, C, D) | ligand-dependent EGFR phosphorylation in the I-fraction (EGFR; filipin pretreatment 2 μg/ml, then EGF 20 min, FIG. 2) | constitutive and EGF-induced EGFR phosphorylation (EGFR; varying filipin doses and times, FIG. 4A, C, D) | apoptosis (LNCaP cells [2]) | ligand-induced Akt1 phosphorylation (LNCaP-Cav-1 cells) | ligand-induced EGFR phosphorylation (LNCaP-Cav-1 cells) | cells that excluded Trypan blue (LNCaP cells [3]) | apoptosis in normal prostatic cells [4] |
| --- | --- | --- | --- | --- | --- | --- | --- | --- | --- | --- | --- | --- | --- |
| CCCCC[C@@H](O)[C@H]1C(=O)O[C@H](C)[C@@H](O)/C=C/C=C/C=C/C=C/C=C(\C)[C@@H](O)C[C@H](O)C[C@H](O)C[C@H](O)C[C@H](O)C[C@H](O)C[C@@H]1O [filipin, Filipin] | suppressed | suppressed | up to 75% | no toxicity | substantially reduced | decreased with filipin treatment in a dose- and time-dependent fashion | suppressed | decreased with filipin treatment in a dose- and time-dependent fashion | stimulated apoptosis to a similar extent as the PI3K inhibitor | suppressed | suppressed | 100% | – |
| CCC(C)(C)C(=O)O[C@H]1C[C@@H](C)C=C2C=C[C@H](C)[C@H](CC[C@@H]3C[C@@H](O)CC(=O)O3)[C@H]21 [simvastatin] | – | – | – | – | – | – | – | – | – | – | – | – | does not cause apoptosis |
